Laboratory results taken from patent publication US8703711B2, “Ninjurin-1 modulation and uses thereof” (Val-Chum, Limited Partnership, priority 2009, dated 2014).

What was measured:
[1] = tested on: SCI mice; experiment: Spinal cord injury (SCI), contusion with Infinite Horizons impactor; type: in vivo, C57BL/6 mice
Protocol: Immunofluorescent stainings of human and mouse CNS material. Luxol Fast Blue (LFB) and H&E stainings (Wosik et al., 2007) were performed on human and mouse brain tissue specimens obtained from four MS patients (autopsy) and EAE/SCI animals. Sections showing acute demyelinating lesions and active perivascular mononuclear cell infiltration were selected (8 to 12 blocks per MS donor), and compared to normal-appearing white matter from the same donors (8 blocks per donor) and to non-neurological disease controls (3 donors; 9-11 blocks per donor). Mean age was 49±6 years and disease duration ranged from 3 to 23 years. The cause of death was pneumonia (2), urosepsis (1) and barbiturate intoxication (1). […] Fluorescence was visualized on a Leica™ DM6000 B epifluorescent microscope equipped with a DFC480 digital camera (Leica Microsystems, Wetzlar Germany) or on a Leica™ SP5 confocal microscope. Images were acquired using Openlab™ 4.0.4 (Improvision, Waltham, Mass.) and processed and analyzed with Adobe Photoshop™ CS2 (Adobe, Mountain View, Calif.). Numbers of CD11c+ DCs, F4/80+ macrophages and MHC II+ cells in spinal cord were quantified in pictures of 15 random fields of the spinal cord (two mice per treatment group). […]
Spinal cord injury. […] Locomotor recovery was evaluated in an open-field test using the Basso Mouse Scale (BMS) (Basso D. M. et al., (2006). J Neurotrauma. 23(5): 635-59). […]

[2] = tested on: EAE mice; experiment: Experimental autoimmune encephalomyelitis (EAE) induced with MOG35-55/CFA; type: in vivo, C57BL/6 mice
Protocol: Flow Cytometric analysis of Ninjurin-1 expression. Cells were harvested and resuspended in FACS buffer composed of PBS supplemented with 1% FBS (Biosource-Invitrogen) and 0.1% NaN3 (Sigma). The cells were incubated with HS (Biosource-Invitrogen) to prevent unspecific binding. BBB-endothelial cells and PBMCs were incubated for 1 h at 4° C. with the primary unconjugated monoclonal mouse anti-Ninjurin-1 antibody (20 μg/ml, BD Biosciences), or with the Functional Grade Purified Mouse IgG2a Isotype Control (20 μg/ml, ebioscience, Inc., San Diego, Calif., USA). Cells were then incubated for 30 min at 4° C. with an allophycocyanin (APC)-conjugated goat anti-mouse Ig (2 μg/ml, BD Biosciences) to detect specific binding. Cells were then counter-stained for 30 min at 4° C. with mouse anti-human conjugated antibodies: Human Leukocyte Antigen (HLA)-ABC, Intracellular cell adhesion molecule (ICAM)-1, CD3, CD4, CD8, CD19, HLA-DR, CD14, CD83, CD123, CD209, CD11c or with corresponding isotype controls (all from BD Biosciences). To study the expression of Ninjurin-1 on murine immune cells, the mouse monoclonal anti-Ninjurin-1 antibody was biotinylated, to prevent unspecific binding of the secondary antibody. A buffer exchange was performed with a Slide-A-Lyzer® Dialysis Cassette (3.5-20K Cassettes, Thermo Scientific, Rockford, Ill., USA) to remove glycerol and bovine serum albumin (BSA) from the antibody solution using Melon™ Gel IgG Spin Purification Kit. Biotin was added using the EZ-Link® Micro NHS-PEO4-Biotinylation kit according to the manufacturer's instructions (Thermo Scientific). Murine peripheral blood or CNS mononuclear cells were incubated for 1 h at 4° C. with the primary biotinylated monoclonal mouse anti-Ninjurin-1 antibody (5 μg/ml, BD Biosciences), or with the Biotin-conjugated IgG2a, K isotype control (5 μg/ml, ebioscience). Cells were then incubated for 30 min at 4° C. with secondary antibody […]—APC (2 μg/ml, BD Biosciences). […] Cells were acquired on a BD LSR™ II Flow cytometer and analyzed using the BD FACSDiva™ software (BD Biosciences). […]

[3] = tested on: human CD14+ monocytes migrating across human BBB-endothelial cells; experiment: In vitro model of the human BBB (Boyden chamber): CD14+ monocyte migration; type: cell-based; settings: human Ninj26-37 peptide 0.4 mM on BBB-ECs 1 h before cells; 24 h migration; vs scramble peptide
Protocol: In vitro model of the BBB. BBB-ECs grown in primary cultures were used to generate an in vitro model of the human BBB, as published previously (Cayrol et al., Nature Immunol 9(2): 137-45 Epub 2007 Dec. 23). Human BBB-endothelial cells (25×10^3 cells/chamber) were grown in primary culture on 3 μm porous membrane (Becton Dickinson Labware, Franklin Lakes, N.J., USA), coated with 0.5% gelatin (Sigma), in endothelial cell culture media supplemented with 40% ACM, for 4 days to reach confluency. The BBB-endothelial cells were treated with 0.4 mM of scramble peptide (WRGNPGIRWAPH, SEQ ID NO: 12), 0.4 mM of human Ninj26-37 (PARWGWRHGPIN; SEQ ID NO: 5), 10 μg/ml of sheep IgG isotype control or 10 μg/ml of sheep anti-human Ninjurin-1 blocking Ab one hour prior to the addition of the leukocytes. Human ex vivo CD14^+ monocytes, or CD4^+, or CD8^+ lymphocytes were isolated, from consenting healthy donors, as described above. The leukocytes were added to the upper chamber (1×10^6 cells/chamber) and were allowed to migrate across human BBB-endothelial cells for 24 h. The cells that migrated through the BBB-endothelial cells, were recovered from the lower chamber and counted manually. All migration data shown represent at least 3 independent experiments performed in triplicate.

Row | Sequence | infiltration of Iba1+ and CD11c+ myeloid cells in the spinal cord of SCI animals ([1]; murine Ninj26-37 200 μg i.p. b.i.d. day 1 to 7 after injury, day 7 post-injury, vs control peptide) | clinical scores (Basso mouse scale, BMS) after SCI ([1]; murine Ninj26-37 200 μg i.p. twice a day, vs control animals) | demyelination (tissue damage) and immune cell infiltration in EAE spinal cord, Luxol fast blue-H&E ([2]; Ninj26-37 200 μg i.p. twice daily day 3 to 23, vs control group) | infiltrating MHC II+, F4/80+ and CD11c+ myeloid cells in EAE spinal cord, immunofluorescence and cell counts ([2]; Ninj26-37 200 μg i.p. twice daily, 14 days post-immunization, vs control/scramble) | EAE neurological signs, symptoms and clinical scores ([2]; mouse Ninj26-37 200 μg i.p. twice a day, day 3 to 23 post-immunization, vs PBS (FIG. 6A) or scramble peptide (FIG. 15)) | migration of CD14+ monocytes across human BBB-endothelial cells [3]
1 | PPRWGLRNRPIN (SEQ ID NO: 6) (Peptide corresponding to residues 26 to 37 of human Ninjurin-1) [mouse Ninj26-37] | reduced | reduced | reduction in immune cell infiltration and demyelination | reduction of infiltrating | significant reduction of the neurological signs, symptoms and clinical scores | –
2 | PARWGWRHGPIN (SEQ ID NO: 5) (listed as Homo sapiens) [human Ninj26-37] | – | – | – | – | – | significantly restricts the migration
